Laboratory results taken from ChEMBL document CHEMBL1201862, “PubChem BioAssay data set” (2004).
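Five concentrations, 48 hours, 96-well plates. Here, GI50 denotes the concentration required for 50% inhibition of growth.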 Calls of active or inactive are those of the source. Rule as the data show it: active = GI50 up to about 1.1 µM and inactive = higher.

Legend:
Test in all cases: NCI anticancer screen, dose series, 48 h
[1] = test system: KM-20L2
[2] = test system: LXFL 529
[3] = test system: SNB-75
[4] = test system: U-251
[5] = test system: CAKI-1
[6] = test system: SK-OV-3
[7] = test system: ACHN
[8] = test system: SK-MEL-2
[9] = test system: NCI-H522
[10] = test system: HCC 2998
[11] = test system: MOLT-4
[12] = test system: IGROV-1
[13] = test system: HT-29
[14] = test system: HCT-15
[15] = test system: DMS-114
[16] = test system: MDA-MB-435
[17] = test system: PC-3
[18] = test system: NCI/ADR-RES
[19] = test system: Hs-578T

Structure (SMILES)	GI50 [1]	GI50 [2]	GI50 [3]	GI50 [4]	GI50 [5]	GI50 [6]	GI50 [7]	GI50 [8]	GI50 [9]	GI50 [10]	GI50 [11]	GI50 [12]	GI50 [13]	GI50 [14]	GI50 [15]	GI50 [16]	GI50 [17]	GI50 [18]	GI50 [19]
O=S(=O)(c1ccccc1)C(CN1CCCCC1)S(=O)(=O)c1ccccc1	> 100 µM (inactive)	> 100 µM (inactive)	> 100 µM (inactive)	> 100 µM (inactive)	> 100 µM (inactive)	> 100 µM (inactive)	> 100 µM (inactive)	> 100 µM (inactive)	> 100 µM (inactive)	> 100 µM (inactive)	> 100 µM (inactive)	> 100 µM (inactive)	> 100 µM (inactive)	> 100 µM	–	–	–	–	–
CCN(C(=N)C#N)c1ccccc1	> 100 µM (inactive)	> 100 µM (inactive)	> 100 µM (inactive)	65.9 µM (inactive)	> 100 µM (inactive)	> 100 µM (inactive)	> 100 µM (inactive)	> 100 µM (inactive)	> 100 µM (inactive)	> 100 µM (inactive)	> 100 µM (inactive)	> 100 µM (inactive)	> 89.7 µM (inactive)	> 45.4 µM	> 54.8 µM (inactive)	–	–	–	–
CC1=C(c2cc(C(=O)Nc3cccc(C(F)(F)F)c3)ncn2)Sc2ccccc2N1	> 100 µM (inactive)	> 100 µM (inactive)	58.9 µM (inactive)	> 100 µM (inactive)	> 100 µM (inactive)	> 100 µM (inactive)	> 100 µM (inactive)	> 100 µM (inactive)	> 100 µM (inactive)	–	> 100 µM (inactive)	> 100 µM (inactive)	> 100 µM (inactive)	> 100 µM	> 100 µM (inactive)	–	–	–	–
CC1(C)CC(C)(C)CC(O)(C2(O)CC(C)(C)CC(C)(C)C2)C1	> 100 µM (inactive)	> 100 µM (inactive)	–	> 100 µM (inactive)	–	> 100 µM (inactive)	> 100 µM (inactive)	–	> 100 µM (inactive)	> 100 µM (inactive)	> 100 µM (inactive)	> 100 µM (inactive)	> 100 µM (inactive)	> 100 µM	> 100 µM (inactive)	–	–	–	–
CCC1(O)C(=O)OCc2c1cc1n(c2=O)Cc2cc3cc(OC)c(OC)cc3nc2-1 (configuration not stated)	> 100 µM (inactive)	> 100 µM (inactive)	15 µM (inactive)	6.52 µM (inactive)	–	19.7 µM (inactive)	4.5 µM (inactive)	–	8.61 µM (inactive)	36.7 µM (inactive)	4.85 µM (inactive)	13.9 µM (inactive)	> 100 µM (inactive)	–	12.8 µM (inactive)	–	–	–	–
Cc1cccc2c1C/C(=C1\CCc3c(C)cccc31)C2=O	> 100 µM (inactive)	> 100 µM (inactive)	80.9 µM (inactive)	> 100 µM (inactive)	> 100 µM (inactive)	> 100 µM (inactive)	> 100 µM (inactive)	> 100 µM (inactive)	–	> 100 µM (inactive)	> 100 µM (inactive)	> 100 µM (inactive)	> 100 µM (inactive)	> 100 µM	> 100 µM (inactive)	–	–	–	–
CCOC(=O)/C(=C\NCc1ccc2c(c1)OCO2)c1nc2ccccc2[nH]1	–	–	77.3 µM (inactive)	82 µM (inactive)	> 100 µM (inactive)	> 100 µM (inactive)	38.4 µM (inactive)	48.4 µM (inactive)	28.2 µM (inactive)	42.7 µM (inactive)	30.5 µM (inactive)	40.3 µM (inactive)	24.6 µM (inactive)	44.9 µM	–	48.6 µM (inactive)	50 µM (inactive)	60.3 µM (inactive)	56.8 µM (inactive)
O=C(NCCNCCO)N/N=C/c1ccc([N+](=O)[O-])cc1	–	–	21.7 µM (inactive)	> 100 µM (inactive)	> 100 µM (inactive)	> 100 µM (inactive)	> 100 µM (inactive)	49.8 µM (inactive)	> 100 µM (inactive)	> 100 µM (inactive)	> 100 µM (inactive)	> 100 µM (inactive)	> 100 µM (inactive)	> 100 µM	–	> 100 µM (inactive)	> 100 µM (inactive)	> 100 µM (inactive)	57.1 µM (inactive)
CC1(C)C2CCC(=O)C1C(OCc1ccccc1)C2 (configuration not stated)	–	–	> 100 µM (inactive)	> 100 µM (inactive)	24.1 µM (inactive)	> 100 µM (inactive)	> 100 µM (inactive)	> 100 µM (inactive)	> 100 µM (inactive)	> 100 µM (inactive)	> 100 µM (inactive)	> 100 µM (inactive)	> 100 µM (inactive)	> 100 µM	–	> 100 µM (inactive)	> 100 µM (inactive)	> 100 µM (inactive)	> 100 µM (inactive)
NC(=S)NS(=O)(=O)c1ccc(F)cc1	–	–	> 100 µM (inactive)	> 100 µM (inactive)	> 100 µM (inactive)	> 100 µM (inactive)	> 100 µM (inactive)	> 100 µM (inactive)	> 100 µM (inactive)	> 100 µM (inactive)	> 100 µM (inactive)	> 100 µM (inactive)	> 100 µM (inactive)	> 100 µM	–	> 100 µM (inactive)	> 100 µM (inactive)	> 100 µM (inactive)	> 100 µM (inactive)
C=CCNC(=O)N(CCCCC(NC(C)=O)C(=O)NCc1ccccc1)Cc1ccccc1 (configuration not stated)	> 100 µM (inactive)	> 100 µM (inactive)	> 100 µM (inactive)	> 100 µM (inactive)	> 100 µM (inactive)	> 100 µM (inactive)	> 100 µM (inactive)	> 100 µM (inactive)	> 100 µM (inactive)	–	> 100 µM (inactive)	> 100 µM (inactive)	> 100 µM (inactive)	> 100 µM	–	–	–	–	–
Oc1nc(-c2cccc(F)c2)nc2ccccc12	–	–	16.6 µM (inactive)	36.5 µM (inactive)	> 100 µM (inactive)	28.7 µM (inactive)	31.1 µM (inactive)	41 µM (inactive)	43.9 µM (inactive)	35.1 µM (inactive)	> 100 µM (inactive)	57.1 µM (inactive)	> 100 µM (inactive)	> 100 µM	–	> 86.1 µM (inactive)	55.5 µM (inactive)	45.5 µM (inactive)	15.7 µM (inactive)
O=C1c2scc(-c3ccc(F)cc3)c2-n2cccc21	–	–	6.4 µM (inactive)	15.7 µM (inactive)	10.3 µM (inactive)	40.6 µM (inactive)	39.7 µM (inactive)	35.2 µM (inactive)	17.3 µM (inactive)	23.5 µM (inactive)	27.9 µM (inactive)	18.3 µM (inactive)	20.8 µM (inactive)	32.1 µM	–	11.1 µM (inactive)	29.9 µM (inactive)	33 µM (inactive)	20.3 µM (inactive)
O=C1/C(=C/c2ccccc2S)N=C(c2ccccc2)N1c1nc2ccc(Sc3ccccc3)cc2[nH]1	–	–	22.3 µM (inactive)	21.3 µM (inactive)	34.1 µM (inactive)	43.1 µM (inactive)	50.5 µM (inactive)	17.8 µM (inactive)	22.8 µM (inactive)	22.7 µM (inactive)	35.4 µM (inactive)	49.4 µM (inactive)	20.2 µM (inactive)	31.9 µM	–	12.4 µM (inactive)	32.2 µM (inactive)	22 µM (inactive)	28.2 µM (inactive)
Oc1ccc2ccccc2c1-c1c(Nc2ccccc2)ccc2ccccc12	–	–	16.1 µM (inactive)	21.8 µM (inactive)	14.9 µM (inactive)	6.08 µM (inactive)	19.9 µM (inactive)	17.2 µM (inactive)	15.8 µM (inactive)	14 µM (inactive)	17.7 µM (inactive)	5.73 µM (inactive)	33.7 µM (inactive)	> 38 µM	–	6.34 µM (inactive)	18.4 µM (inactive)	> 34.7 µM (inactive)	19.9 µM (inactive)
CCOC(=O)C(C)(C)Oc1ccc2c(=O)cc(-c3ccc(Cl)cc3)oc2c1	> 100 µM (inactive)	> 100 µM (inactive)	38.4 µM (inactive)	> 100 µM (inactive)	–	–	> 100 µM (inactive)	> 100 µM (inactive)	–	> 100 µM (inactive)	> 100 µM (inactive)	> 100 µM (inactive)	> 100 µM (inactive)	> 100 µM	> 100 µM (inactive)	–	–	–	–
CC(=O)OC(=C(C#N)C#N)c1nccnc1C(C)=O	–	–	3.96 µM (inactive)	6.07 µM (inactive)	> 20 µM (inactive)	> 20 µM (inactive)	> 20 µM (inactive)	> 20 µM (inactive)	19.2 µM (inactive)	> 20 µM (inactive)	> 20 µM (inactive)	> 20 µM (inactive)	4.2 µM (inactive)	> 20 µM	–	> 20 µM (inactive)	> 20 µM (inactive)	> 20 µM (inactive)	4.44 µM (inactive)
COc1ccccc1N1CCN(Cn2c(=O)oc3cccnc32)CC1	–	–	30 µM (inactive)	90.2 µM (inactive)	> 100 µM (inactive)	> 100 µM (inactive)	> 100 µM (inactive)	> 100 µM (inactive)	> 100 µM (inactive)	> 100 µM (inactive)	> 100 µM (inactive)	> 100 µM (inactive)	> 100 µM (inactive)	> 100 µM	–	> 100 µM (inactive)	> 100 µM (inactive)	> 100 µM (inactive)	> 100 µM (inactive)
COc1ccc(/C=N/n2c(Cc3ccccc3)n[nH]c2=O)c(OC)c1	–	–	9.71 µM (inactive)	22 µM (inactive)	> 51.4 µM (inactive)	29.2 µM (inactive)	30.4 µM (inactive)	> 59.8 µM (inactive)	> 52 µM (inactive)	> 77.4 µM (inactive)	> 100 µM (inactive)	28.8 µM (inactive)	19.5 µM (inactive)	> 100 µM	–	> 100 µM (inactive)	> 100 µM (inactive)	21.5 µM (inactive)	11.2 µM (inactive)
